# Experimental data reported in paper PMC5493200 (ACS infectious diseases, 2016).
# “And” between values parts separate entries of the source, which are not always exact repeats. Equal entries are not always repeated.
# Experiments:
# [1] = test system: M. tuberculosis H37Rv Rv1258c knockout (KO); test: microbe, parasite or virus in culture; type: cell-based; conditions: Tables 1-4 and text; 7 days, 7H9 broth
# [2] = biological target: Purified 70S M. smegmatis bacterial ribosomes (Mycolicibacterium smegmatis, UniProt A0QSG6); test: Ribosomal translation inhibition; type: biochemical; conditions: inhibits luciferase activity by 50%
# Rv1258c efflux pump = conditions: for Efflux Ratio: H37Rv MIC / Rv1258c KO MIC
# M. tuberculosis H37Rv = test: microbe, parasite or virus in culture; type: cell-based, Mycobacterium tuberculosis; conditions: for H37Rv MIC: Tables 1-4 and text
# [3] = Microsomal stability, human; type: in vitro ADME; conditions: human liver microsomes
# [4] = Microsomal stability, mouse; type: in vitro ADME; conditions: mouse liver microsomes
# Protein binding, human = type: in vitro ADME
# Protein binding, mouse = type: in vitro ADME
# HepG2 cells = test: Mammalian cytotoxicity; type: cell-based
# M. tuberculosis Erdman = test: Mouse model of acute tuberculosis infection; type: in vivo; conditions: first new trial (Figure 3B), 200 mg/kg BID, 9 days, subcutaneous, vs control
# Chain of Purified 70S M. smegmatis bacterial ribosomes (A0QSG6 whole entry): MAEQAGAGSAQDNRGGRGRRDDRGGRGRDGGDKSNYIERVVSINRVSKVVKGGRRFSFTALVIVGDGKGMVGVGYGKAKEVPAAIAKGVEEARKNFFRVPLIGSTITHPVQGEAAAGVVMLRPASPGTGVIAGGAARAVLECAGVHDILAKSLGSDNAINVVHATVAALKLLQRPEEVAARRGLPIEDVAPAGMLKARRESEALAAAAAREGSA
Structure (SMILES),Rv1258c KO MIC [1] [µg/mL],Ribosome IC50 [2],Efflux Ratio (Rv1258c efflux pump),H37Rv MIC (M. tuberculosis H37Rv) [µg/mL],Fold change of MIC between H37Rv and Rv1258c KO (efflux) (Rv1258c efflux pump) [fold],MIC (H37Rv) (M. tuberculosis H37Rv; Table 5) [µg/mL],Microsomal stability t1/2 human [3] [h],Microsomal stability t1/2 mouse [4] [h],"Protein binding human (Protein binding, human) [%]","Protein binding mouse (Protein binding, mouse) [%]",Cytotoxicity (HepG2) (HepG2 cells) [µg/mL],Reduction of bacterial load in lungs (M. tuberculosis Erdman)
"Br.Br.Br.CNC1C(O)C(NC)C2OC3(O)C(OC(C)C[C@H]3NC(=O)Nc3ccccc3)OC2C1O (stereo partly drawn) [Compound 8, 3′-Dihydro-3′-deoxy-3′(R)-phenylaminocarbonylamino spectinomycin trihydrobromide]",25,3.77 µg/mL,>8,–,–,–,–,–,–,–,–,–
"Br.Br.CNC1C(O)C(NC)C2OC3(O)C(NS(=O)(=O)Cc4ccccc4)CC(C)OC3OC2C1O [Compound 9, 3′-Dihydro-3′-deoxy-3′(R)-benzylsulfonylamino spectinomycin dihydrobromide]",12.5,10.97 µg/mL,>16,>200,–,–,–,–,–,–,–,–
"CNC1C(O)C(NC)C2OC3(O)C(NC(=O)Nc4ccccn4)CC(C)OC3OC2C1O.Cl.Cl [Compound 10, 3′-Dihydro-3′-deoxy-3′(R)-(pyridin-2-yl)aminocarbonylamino spectinomycin dihydrochloride]",3.1,2.24 µg/mL,4,12.5,–,–,–,–,–,–,–,–
"Br.Br.Br.CNC1C(O)C(NC)C2OC3(O)C(NC(=O)CCc4ccccn4)CC(C)OC3OC2C1O [Compound 12, 3′-Dihydro-3′-deoxy-3′(R)-(pyridin-2-yl)propanoylamino spectinomycin trihydrobromide]",6.3,3.80 µg/mL,8,50,8,–,–,–,–,–,–,–
"Br.Br.Br.CNC1C(O)C(NC)C2OC3(O)C(NC(=O)Cc4csc(N)n4)CC(C)OC3OC2C1O [Compound 18, 3′-Dihydro-3′-deoxy-3′(R)-(2-aminothiazol-4-yl)acetylamino spectinomycin trihydrobromide]",6.3,0.62 µg/mL,1,–,–,–,–,–,–,–,–,–
"Br.Br.Br.CNC1C(O)C(NC)C2OC3(O)C(NC(=O)Cc4nccs4)CC(C)OC3OC2C1O [Compound 19, 3′-Dihydro-3′-deoxy-3′(R)-(thiazol-2-yl) acetylamino spectinomycin trihydrobromide]",6.3,0.72 µg/mL,1,–,–,–,–,–,–,–,–,–
"Br.Br.Br.CNC1C(O)C(NC)C2OC3(O)C(NC(=O)Cc4c[nH]cn4)CC(C)OC3OC2C1O [Compound 20, 3′-Dihydro-3′-deoxy-3′(R)-(1H-imidazol-4-yl)acetylamino spectinomycin trihydrobromide]",12.5,1.10 µg/mL,2,25,–,–,–,–,–,–,–,–
"Br.Br.Br.CNC1C(O)C(NC)C2OC3(O)C(NC(=O)Cn4cccn4)CC(C)OC3OC2C1O [Compound 22, 3′-Dihydro-3′-deoxy-3′(R)-(1H-pyrazol-1-yl)acetylamino spectinomycin trihydrobroride]",6.3,0.42 µg/mL,1,6.3,–,–,–,–,–,–,–,–
"Br.Br.Br.CNC1C(O)C(NC)C2OC3(O)C(OC(C)C[C@H]3NC(=O)Cn3ccnc3)OC2C1O (stereo partly drawn) [Compound 23, 3′-Dihydro-3′-deoxy-3′(R)-(1H-imidazol-1-yl)acetylamino spectinomycin trihydrobromide]",12.5,1.51 µg/mL,8,100,8,–,–,–,–,–,–,–
"Br.Br.Br.CNC1C(O)C(NC)C2OC3(O)C(NC(=O)Cc4nc5ccccc5o4)CC(C)OC3OC2C1O [Compound 24, 3′-Dihydro-3′-deoxy-3′(R)-(benzo[d]oxazol-2-yl)acetylamino spectinomycin trihydrobroride]",3.1,0.61 µg/mL,2,6.3,–,–,–,–,–,–,–,–
"Br.Br.Br.CNC1C(O)C(NC)C2OC3(O)C(OC(C)C[C@H]3NC(=O)Cc3nc4ccccc4n3C)OC2C1O (stereo partly drawn) [Compound 26, 3′-Dihydro-3′-deoxy-3′(R)-(1-methyl-1H-benzo[d]imidazol-2-yl)acetylamino spectinomycin trihydrobroride]",3.1,0.26 µg/mL,2,6.3,–,–,–,–,–,–,–,–
"CNC1C(O)C(NC)C2OC3(O)C(NC(=O)Cc4cc5ccccc5[nH]4)CC(C)OC3OC2C1O [Compound 28, 3′-Dihydro-3′-deoxy-3′(R)-(1H-indol-2-yl)acetylamino spectinomycin]",0.8,0.77 µg/mL,32,25,32,–,–,–,–,–,–,–
"Br.Br.Br.CNC1C(O)C(NC)C2OC3(O)C(NC(=O)Cc4ncccc4C)CC(C)OC3OC2C1O [Compound 29, 3′-Dihydro-3′-deoxy-3′(R)-(3-methylpyridin-2-yl)acetylamino spectinomycin trihydrobromide]",6.3,1.00 µg/mL,4,25,–,–,–,–,–,–,–,–
"Br.Br.Br.CNC1C(O)C(NC)C2OC3(O)C(NC(=O)Cc4cc(C)ccn4)CC(C)OC3OC2C1O [Compound 30, 3′-Dihydro-3′-deoxy-3′(R)-(4-methylpyridin-2-yl)acetylamino spectinomycin trihydrobromide]",6.3,0.47 µg/mL,0.5,3.1,–,–,–,–,–,–,–,–
"Br.Br.Br.CNC1C(O)C(NC)C2OC3(O)C(OC(C)C[C@H]3NC(=O)Cc3cccc(C)n3)OC2C1O (stereo partly drawn) [Compound 32, 3′-Dihydro-3′-deoxy-3′(R)-(6-methylpyridin-2-yl)acetylamino spectinomycin trihydrobromide]",6.3,0.50 µg/mL,4,25,–,–,–,–,–,–,–,–
"Br.Br.Br.CNC1C(O)C(NC)C2OC3(O)C(NC(=O)Cc4cc(C(C)C)ccn4)CC(C)OC3OC2C1O [Compound 33, 3′-Dihydro-3′-deoxy-3′(R)-(4-isopropylpyridin-2-yl)acetylamino spectinomycin trihydrobromide]",1.6,0.36 µg/mL,4,6.3,4,–,–,–,–,–,–,–
"Br.Br.Br.CNC1C(O)C(NC)C2OC3(O)C(NC(=O)Cc4cc(OC)ccn4)CC(C)OC3OC2C1O [Compound 34, 3′-Dihydro-3′-deoxy-3′(R)-(4-methoxypyridin-2-yl)acetylamino spectinomycin trihydrobromide]",3.1,0.39 µg/mL,4,12.5,–,–,–,–,–,–,–,–
"CNC1C(O)C(NC)C2OC3(O)C(NC(=O)Cc4cc(O)ccn4)CC(C)OC3OC2C1O.Cl.Cl.Cl [Compound 35, 3′-Dihydro-3′-deoxy-3′(R)-(4-hydroxypyridin-2-yl)acetylamino spectinomycin trihydrochloride]",12.5,0.44 µg/mL,2,25,–,–,–,–,–,–,–,–
"Br.Br.Br.CNC1C(O)C(NC)C2OC3(O)C(NC(=O)Cc4ccc(N)cn4)CC(C)OC3OC2C1O [Compound 37, 3′-Dihydro-3′-deoxy-3′(R)-(5-aminopyridin-2-yl)acetylamino spectinomycin trihydrobromide]",6.3,0.30 µg/mL,–,6.3,–,–,–,–,–,–,–,–
"Br.Br.Br.CNC1C(O)C(NC)C2OC3(O)C(NC(=O)Cc4ccc(Br)cn4)CC(C)OC3OC2C1O [Compound 43, 3′-Dihydro-3′-deoxy-3′(R)-(5-bromopyridin-2-yl)acetylamino spectinomycin trihydrobromide]",1.6,0.42 µg/mL,2,3.1,–,–,–,–,–,–,–,–
"Br.Br.Br.CNC1C(O)C(NC)C2OC3(O)C(OC(C)C[C@H]3NC(=O)Cc3nccc(Cl)c3C(C)C)OC2C1O (stereo partly drawn) [Compound 45, 3′-Dihydro-3′-deoxy-3′(R)-(4-chloro-3-isopropylpyridin-2-yl)acetylamino spectinomycin trihydrobromide]",1.6,2.3 µg/mL and 2.31 µg/mL,32,50,32,–,–,–,–,–,–,–
"Br.Br.Br.CN[C@@H]1[C@H](O)[C@H](NC)[C@H]2O[C@]3(O)[C@H](O[C@@H]2[C@H]1O)O[C@H](C)C[C@H]3NC(=O)Cc1nccc(Cl)c1C [Compound 46, 3′-Dihydro-3′-deoxy-3′(R)-(4-chloro-3-methylpyridin-2-yl)acetylamino spectinomycin trihydrobromide]",1.6,0.59 µg/mL,2,3.1,–,3.1,>50,>50,46.6,36.4,>400,least reduction in bacterial loads
"CNC1C(O)C(NC)C2OC3(O)C(OC(C)C[C@H]3NC(=O)Cc3cc(OC)c(F)cn3)OC2C1O.Cl.Cl.Cl (stereo partly drawn) [Compound 50, 3′-Dihydro-3′-deoxy-3′(R)-(5-fluoro-4-methoxypyridin-2-yl)acetylamino spectinomycin trihydrochloride]",3.1,0.92 µg/mL,2,6.3,–,–,–,–,–,–,–,–
